How the values were obtained:
[1] = tested on: saphenous vein in rabbits; assay: Potentiation of the contractile response of the rabbit saphenous vein to noradrenaline; assay type: cell-based
Procedure: (§1) The contractile effects are measured in vitro under static conditions on vascular capacitance or resistance rings of saphenous, femoral, jugular, mesenteric, and caval veins . . . and on femoral, carotid, basilar, or mesenteric arteries, as well as the thoracic or abdominal aorta . . . in rats (Wistar, 200-250 g), rabbits (New Zealand, 2-2.5 kg), guinea pigs (Dunkin Hartley 250-300 g).
(§2) The rings are placed in a chamber for isolated organs (25 mL for capacitance vessels and 2.5 mL for resistance vessels according to Mulvany), and maintained under isometric conditions using two rigid threads inserted inside the vessel, avoiding causing damage to the endothelium. The vessels are bathed in a modified Krebs solution (in mM: NaCl=118; KCl=4.6; CaCl2 =2.5; MgSO4 =1.2; KH2 PO4 =1.17; NaHCO3 =25; glucose=11), continuously aerated using a gaseous mixture of 95% O2 and 5% Co2, at a pH=7.4, and regulated by thermostat at 37° C. The rings are adjusted to their optimal point as far as the tension-length relationship is concerned. […] The pharmacological studies are carried out after a few standardized preliminary contractile stimulations using a depolarizing solution (hyperpotassic type obtained by replacing NaCl with KCl in equimolar quantities), along with rinsings and periods of equilibration in a pure physiological solution. […]

septic shock in rats = assay: Septic shock induced by LPS in rats; assay type: in vivo; conditions: rat, 28 mg/kg i.v. bolus 5 min before induction of septic shock, compared to control group
Procedure: The activity in septic shock is studied in rats after the induction of the shock by an intravenous injection in the bolus of a lipopolysaccharide endotoxin (LPS: 15 mg/kg) of E. col, in a method similar to that described by Terashita et al., Eur. J. Pharmacol., 1985, Vol. 109: pp. 257-261. The arterial pressures are measured as a function of time and comparatively between treated groups and control groups (excipient alone). The compounds are administered intravenously or orally, 5 min or 2 h, respectively, before the injection of LPS.

[2] = tested on: saphenous vein in rabbits; assay: Potentiation of the contractile response of the rabbit saphenous vein to serotonin; assay type: cell-based
Procedure: as §1, §2

jugular vein of rabbits = assay: Contraction of rabbit jugular vein under depolarizing hyperpotassic conditions; assay type: cell-based; conditions: Oryctolagus cuniculus, pH 7.4, read-out: ED50 (contraction)
Procedure: as §1, §2

[3] = tested on: saphenous vein in rabbits; assay: Contractile effect on the rabbit saphenous vein precontracted by a depolarizing physiological solution (K+ 40 mM); assay type: cell-based; conditions: Oryctolagus cuniculus, precontracted with 40 mM potassium
Procedure: as §1
The rings are placed in a chamber for isolated organs (25 mL for capacitance vessels and 2.5 mL for resistance vessels according to Mulvany), and maintained under isometric conditions using two rigid threads inserted inside the vessel, avoiding causing damage to the endothelium. The vessels are bathed in a modified Krebs solution (in mM: NaCl=118; KCl=4.6; CaCl2 =2.5; MgSO4 =1.2; KH2 PO4 =1.17; NaHCO3 =25; glucose=11), continuously aerated using a gaseous mixture of 95% O2 and 5% Co2, at a pH=7.4, and regulated by thermostat at 37° C. The rings are adjusted to their optimal point as far as the tension-length relationship is concerned. The tensions developed generate an electrical signal through the intermediary of a force sensor (Wheatstone bridge). […] The pharmacological studies are carried out after a few standardized preliminary contractile stimulations using a depolarizing solution (hyperpotassic type obtained by replacing NaCl with KCl in equimolar quantities), along with rinsings and periods of equilibration in a pure physiological solution. The presence of endothelium is verified by the relaxation induced by increasing the concentration of acetylcholine after the stabilization of a vascular precontraction.
The forces of contraction developed by the vascular rings in response to the different compounds are studied on quiescent or electrically stimulated vessels (5-8 Hz), by a "physiological" depolarizing hyperpotassic solution (KCl: 20, 40 mM), by noradrenaline (increasing concentrations), [and by] serotonin (increasing concentrations).
The contractions are expressed in mg force or as a percentage of the maximum contraction at the time of the depolarization with a "physiological" hyperpotassic solution.
The contractile effect of different compounds on the saphenous vein in rabbits, precontracted by a depolarizing "physiological" solution with a potassium concentration of 40 mM, is given as an illustration; the maximum effect produced by each compound is expressed as a percentage of the maximum contraction induced by depolarizing hyperpotassic solutions and as value of ED50): […]

carotid arteries of rats = assay: Contraction of rat carotid arteries under depolarizing hyperpotassic conditions; assay type: cell-based; conditions: pH 7.4, read-out: ED50 (contraction)
Procedure: as §1, §2

[4] = tested on: basilar artery of rabbits; assay: Contraction of rabbit basilar artery under depolarizing hyperpotassic conditions; assay type: cell-based
Procedure: as §1, §2

[5] = tested on: perfused mesenteric venous network of rats; assay: Contraction of the perfused mesenteric venous network of rats; assay type: cell-based; conditions: rat perfused mesenteric venous network, depolarizing hyperpotassic conditions; read-out: ED50 (contraction)
Procedure: The contractile effects are also measured in vitro under dynamic flow conditions, by the pressure developed by the vascular beds that are perfused at a constant flow rate. At the mesenteric level, the selective effect on veins is studied using the model of a double simultaneous and separate infusion of the arterial and venous networks model developed by T. Warner (British J. Pharmacol., 1990, Vol. 99, pp. 427-433). The separation of the two networks is achieved by cutting the vessels and the tissues along the intestinal border. The networks are perfused at 2 mL.min^-1 with a Krebs solution (37.5° C.), which is aerated using 95% O2 and 5% CO2. In vivo, the arterial and venous pressures are measured in the anesthetized animal, under basal conditions and after circulatory arrest caused by the swelling of a balloon catheter introduced at the level of the left atrium. During the cardiac arrest, the venous tone (average circulatory filling pressure at a constant blood volume) is calculated from the venous and arterial pressures measured at equilibrium and corrected as a function of the relative differences in compliance between these two networks (Samar & Coleman, Am. J. Physiol., 1978, Vol. 234: pp. H94-100; Yamamoto et al., Am. J. Physiol., 1980, Vol. 238: pp. H823-828).

In the case of O=C1c2ccccc2C(=O)c2sc(-c3ccco3)nc21 [Example n, 4,9-Dihydro-4,9-dioxo-2-(2-furyl)-naphtho[2,3-d]thiazole], the “change of noradrenaline ED50” value [1] is reported as “reduced by a factor of ten”, the Emax ([1]; Oryctolagus cuniculus, read-out: increase of noradrenaline Emax) is reported as 30% and the “increase of average arterial pressure” value (septic shock in rats) is reported as 20 mm of mercury. The “contractile response due to serotonin” value [2] was “selectively potentiates”, the EC50 (jugular vein of rabbits) was 16 nM and the Emax ([3]; % of maximum contraction induced by hyperpotassic solutions) was 24 ± 3%. For the same molecule, the EC50 ([3]; read-out: ED50 (the source's name)) was 110 nM, the EC50 (carotid arteries of rats) was 300 nM and the “contraction of basilar artery” value [4] was “contracts”. It also gave an EC50 [5] of 300 nM.

Source: patent publication US6262095A, “Use of tricyclic derivatives of 1,4-dihydro-1,4-dioxo-1H-naphthalene, novel compounds obtained and their application in theraphy” (Laboratoire Innothera, priority 1995, dated 2001)
